Legend:
Assay in all cases: relative viability (nuclei count vs DMSO), 5 days (fraction); higher = more cells survive
BAM7 + Lapatinib = compound: CCOC1=CC=CC=C1N=NC2=C(NN(C2=O)C3=NC(=CS3)C4=CC=CC=C4)C [BAM7] + CS(=O)(=O)CCNCc1ccc(-c2ccc3ncnc(Nc4ccc(OCc5cccc(F)c5)c(Cl)c4)c3c2)o1 [Lapatinib] (partner 2 µM)
Method in brief: (§1)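 Relative viability is defined as nuclei in treated wells over nuclei in vehicle wells. Duplicate plates were run and medians reported. Lung cancer cell lines in 1536-well plates were dosed by pin tool one day after seeding, with one drug or with a fixed anchor-drug dose plus five library-drug doses (not always all listed) in √10 steps, and nuclei were counted after 5 days.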

BAM7 + Olaparib = compound: CCOC1=CC=CC=C1N=NC2=C(NN(C2=O)C3=NC(=CS3)C4=CC=CC=C4)C [BAM7] + O=C(c1cc(Cc2n[nH]c(=O)c3ccccc23)ccc1F)N1CCN(C(=O)C2CC2)CC1 [Olaparib] (partner 8 µM)
Method in brief: as §1

[1] = compound: CCn1c(-c2nonc2N)nc2c(C#CC(C)(C)O)ncc(OC[C@H]3CCCNC3)c21 + Cc1cc(Nc2cc(N3CCN(C)CC3)nc(Sc3ccc(NC(=O)C4CC4)cc3)n2)n[nH]1 [Tozasertib] (partner 0.1 µM)
Method in brief: as §1

[2] = compound: CCn1c(-c2nonc2N)nc2c(C#CC(C)(C)O)ncc(OC[C@H]3CCCNC3)c21 + Nc1ncn([C@H]2C[C@H](O)[C@@H](CO)O2)c(=O)n1 [Decitabine] (partner 2 µM)
Method in brief: as §1

Cell Line	relative viability (BAM7 + Lapatinib; first compound 0.5 µM)	relative viability (BAM7 + Lapatinib; first compound 5 µM)	relative viability (BAM7 + Lapatinib; first compound 15.81 µM)	relative viability (BAM7 + Lapatinib; first compound 50 µM)	relative viability (BAM7 + Olaparib; first compound 5 µM)	relative viability (BAM7 + Olaparib; first compound 15.81 µM)	relative viability (BAM7 + Olaparib; first compound 50 µM)	relative viability ([1]; first compound 0.01 µM)	relative viability ([1]; first compound 0.03162 µM)	relative viability ([1]; first compound 0.1 µM)	relative viability ([1]; first compound 0.3162 µM)	relative viability ([1]; first compound 1 µM)	relative viability ([2]; first compound 0.01 µM)	relative viability ([2]; first compound 0.03162 µM)	relative viability ([2]; first compound 0.1 µM)	relative viability ([2]; first compound 0.3162 µM)	relative viability ([2]; first compound 1 µM)	relative viability (BAM7 + Olaparib; first compound 0.5 µM)
NCI-H358	0.46	0.522	0.479	0.568	0.535	0.547	0.608	0.0952	0.0863	0.103	0.1	0.097	0.234	0.191	0.221	0.207	0.201	–
NCI-H460	0.904	1.13	0.953	1.03	0.438	0.327	0.344	0.533	0.542	0.447	0.461	0.532	0.529	0.398	0.493	0.465	0.513	0.537
NCI-H520	0.804	0.904	0.93	1.03	0.432	0.342	0.344	0.41	0.482	0.323	0.358	0.335	0.483	0.47	0.387	0.359	0.332	0.401
NCI-H596	0.984	1.14	1.01	1.12	0.625	0.636	0.697	1.07	0.886	0.862	0.951	0.792	1.05	–	0.961	0.929	1.03	0.665
NCI-H647	1.06	0.926	1.01	1.06	0.67	0.549	0.524	0.26	0.326	0.255	0.312	0.396	0.384	0.379	0.407	0.299	0.371	0.711
NCI-H650	0.787	0.92	0.842	1.13	0.363	0.381	0.368	0.724	0.746	0.73	0.723	0.694	0.323	0.348	0.32	0.304	0.29	0.424
NCI-H661	0.704	0.494	0.41	0.54	0.855	0.716	0.725	0.362	0.343	0.354	0.364	0.382	0.504	0.591	0.513	0.561	0.543	0.796
NCI-H727	0.923	1.1	0.788	0.834	0.58	0.522	0.573	0.605	0.662	0.643	0.693	0.575	1.03	0.976	0.943	0.825	0.714	0.707
NCI-H838	1.03	1.04	0.908	1.14	0.776	0.797	0.758	0.276	0.295	0.29	0.248	0.253	0.452	0.416	0.482	0.44	0.497	0.876
NCI-H1355	0.972	1.01	0.986	1.02	0.725	0.679	0.718	0.572	0.629	0.549	0.611	0.612	0.339	0.346	0.385	0.324	0.355	0.753
NCI-H1395	0.826	1.03	1.17	1.33	0.472	0.445	0.425	0.776	0.763	0.736	0.651	0.659	0.819	0.735	0.742	0.583	0.677	0.492
NCI-H1437	0.686	0.514	0.51	0.68	0.546	0.526	0.492	0.38	0.461	0.422	0.39	0.432	0.558	0.541	0.564	0.611	0.627	0.557
NCI-H1650	0.758	0.726	0.806	0.855	0.729	0.737	0.737	0.398	0.474	0.44	0.403	0.44	0.355	0.455	0.522	0.208	0.442	0.734
NCI-H1651	0.747	0.756	0.831	0.858	0.202	0.198	0.175	0.633	0.624	0.794	0.762	0.805	0.582	0.608	0.652	0.597	0.663	0.192
NCI-H1666	0.47	0.7	0.564	0.754	0.727	0.752	0.781	0.625	0.691	0.644	0.578	0.567	0.71	0.657	0.809	0.834	0.735	0.818
NCI-H1734	1.1	1.23	0.974	1.11	0.664	0.599	0.609	0.262	0.258	0.285	0.26	0.268	0.453	0.496	0.546	0.465	0.484	0.57
NCI-H1755	1.06	1.13	1.04	0.979	0.939	0.858	0.899	0.617	0.498	0.572	0.55	0.61	0.727	0.753	0.673	0.669	0.722	0.858

— the supplement of paper PMC10307832
